We go through 15 compounds from patent US12319648B2, “Fluorinated phenylacetic acid derivatives in a weed control method” (SYNGENTA CROP PROTECTION AG, priority 2019, dated 2025).

Holding throughout (assay type): in vivo
Assay [1] relates to Ipomoea hederacea (IPOHE). The assay is described as follows: Post-emergence herbicidal glasshouse test. The conditions noted are these: post-emergence, 250 g/ha, 13 days after application. As for the experimental part:
(§1) Seeds of a variety of test species are shown in standard soil in pots Amaranthus retoflexus (AMARE), Ipomoea hederacea (IPOHE), Solanum nigrum (SOLNI), Lolium perenne (LOLPE). Echinochloa crus-galli (ECHCG), Setaria faberi (SETFA)). After cultivation for one day (pre-emergence) or after 8 days cultivation (post-emergence) under controlled conditions in a glasshouse (at 24/16° C., day/night; 14 hours light; 65% humidity), the plants are sprayed with an aqueous spray solution derived from the formulation of the technical active ingredient in acetone/water (50:50) solution containing 0.5% Tween 20 (polyoxyethylene sorbitan monolaurate, CAS RN 9005-64-5). Compounds are applied at 250 g/ha unless otherwise stated. The test plants are then grown in a glasshouse under controlled conditions in a glasshouse (at 24/16° C., day/night; 14 hours light; 65% humidity) and watered twice daily. After 13 days for pre and post-emergence, the test is evaluated for the percentage damage caused to the plant. The biological activities are shown in the following table on a five-point scale (5=81-100%; 4=61-80%; 3=41-60%; 2=21-40%; 1=0-20%).
(§2) Using the experimental conditions outlined above, a further test is conducted to compare the herbicidal properties of the difluro containing compound (1.014) with a representative compound (C1) referred to in GB901553. The compounds are applied at 1000 g/ha and 500 g/ha. The test is evaluated for the percentage damage caused to the plant (% phytotoxicity).

Assay [2] deals with Amaranthus retoflexus (AMARE). The assay is described as follows: Post-emergence herbicidal glasshouse test. The conditions noted are these: post-emergence, 250 g/ha, 13 days after application. As for the experimental part: as §1, §2
Assay [3] relates to Lolium perenne (LOLPE). Description: Post-emergence herbicidal glasshouse test. The conditions noted are these: post-emergence, 250 g/ha, 13 days after application. As for the experimental part:
as §1, §2

The subject of assay [4] is Setaria faberi (SETFA). The assay is described as follows: Post-emergence herbicidal glasshouse test. The conditions noted are these: post-emergence, 250 g/ha, 13 days after application. As for the experimental part: as §1, §2
For assay [5], the system named is Echinochloa crus-galli (ECHCG). Description: Post-emergence herbicidal glasshouse test. The note with it: post-emergence, 250 g/ha, 13 days after application. The procedure: as §1, §2
The next assay has as its system Solanum nigrum (SOLNI). The assay is described as follows: Post-emergence herbicidal glasshouse test. The conditions noted are these: post-emergence, 250 g/ha, 13 days after application. As for the experimental part:
as §1, §2

The subject of assay [6] is Ipomoea hederacea (IPOHE). Description: Pre-emergence herbicidal glasshouse test. The conditions noted are these: pre-emergence, 250 g/ha, 13 days after application. The procedure: as §1, §2
The test system of assay [7] is Lolium perenne (LOLPE). Description: Pre-emergence herbicidal glasshouse test. The note with it: pre-emergence, 250 g/ha, 13 days after application. The procedure:
as §1, §2

Assay [8] relates to Setaria faberi (SETFA). Description: Pre-emergence herbicidal glasshouse test. The conditions noted are these: pre-emergence, 250 g/ha, 13 days after application. As for the experimental part: as §1, §2
In assay [9] the test system is Echinochloa crus-galli (ECHCG). Description: Pre-emergence herbicidal glasshouse test. The note with it: pre-emergence, 250 g/ha, 13 days after application. As for the experimental part: as §1, §2
For assay [10], the system named is Amaranthus retoflexus (AMARE). The assay is described as follows: Pre-emergence herbicidal glasshouse test. The conditions noted are these: pre-emergence, 250 g/ha, 13 days after application. As for the experimental part: as §1, §2

As to `O=C(O)C(F)(F)c1cccc(Cl)c1Cl` [Compound 1.034], the “percentage damage caused to the plant, five-point scale, IPOHE” value (“percentage damage caused … IPOHE” for short) in assay [1] is 4 (4=61-80%); in assay [6], 5 (5=81-100%). Further, the “percentage damage caused to the plant, five-point scale, AMARE” value (“percentage damage caused … AMARE” below) in [2] was 5 (5=81-100%). The “percentage damage caused to the plant, five-point scale, LOLPE” value (shortened to “percentage damage caused … LOLPE”) with Lolium perenne (LOLPE) [3] is 1 (1=0-20%); with Lolium perenne (LOLPE) [7], 2 (2=21-40%). Moreover, the “percentage damage caused to the plant, five-point scale, SETFA” value (shortened to “percentage damage caused … SETFA”) is 3 (3=41-60%) in the assay on Setaria faberi (SETFA) [4] and 1 (1=0-20%) with Setaria faberi (SETFA) [8]. Also, the “percentage damage caused to the plant, five-point scale, ECHCG” value (from here on “percentage damage caused … ECHCG”) in assay [5] and in [9] was 2 (2=21-40%) each time. In the assay with Solanum nigrum (SOLNI), the “percentage damage caused to the plant, five-point scale, SOLNI” value (“percentage damage caused … SOLNI” for short) was 3 (3=41-60%).
For the compound `O=C([O-])C(F)(F)c1cccc(Cl)c1Cl.[Na+]` [Compound 1.038], the “percentage damage caused … IPOHE” value is recorded as 4 (4=61-80%) in assay [1] and 5 (5=81-100%) in assay [6]. The “percentage damage caused … AMARE” value in assay [2] is listed as 5 (5=81-100%). Moreover, the “percentage damage caused … LOLPE” value is 1 (1=0-20%) with Lolium perenne (LOLPE) [3] and 2 (2=21-40%) in the assay on Lolium perenne (LOLPE) [7]. Further, the “percentage damage caused … SETFA” value was 4 (4=61-80%) with Setaria faberi (SETFA) [4] and 3 (3=41-60%) with Setaria faberi (SETFA) [8]. Also, the “percentage damage caused … ECHCG” value is recorded as 2 (2=21-40%) in assay [5] and 1 (1=0-20%) in assay [9]. In the assay with Solanum nigrum (SOLNI), the “percentage damage caused … SOLNI” value is 4 (4=61-80%).
As to `O=C(O)C(F)(F)c1cccc(Cl)c1Cl` [Compound 1.041], the “percentage damage caused … LOLPE” value with Lolium perenne (LOLPE) [3] is listed as 4 (4=61-80%). In addition, in assay [5], the “percentage damage caused … ECHCG” value is given as 4 (4=61-80%). Also, the “percentage damage caused … SOLNI” value with Solanum nigrum (SOLNI) is 4 (4=61-80%).
Consider `O=C([O-])C(F)(F)c1cccc(Cl)c1Cl.[K+]` [Compound 1.042], for which the “percentage damage caused … IPOHE” value is given as 4 (4=61-80%) in assay [1] and 5 (5=81-100%) in assay [6]. Besides, the “percentage damage caused … AMARE” value in assay [2] is reported as 5 (5=81-100%). Also, the “percentage damage caused … LOLPE” value with Lolium perenne (LOLPE) [3] is reported as 1 (1=0-20%); with Lolium perenne (LOLPE) [7] it was 2 (2=21-40%). The “percentage damage caused … SETFA” value in the assay with Setaria faberi (SETFA) [4] is reported as 3 (3=41-60%). Besides, the “percentage damage caused … ECHCG” value in assay [5] is listed as 2 (2=21-40%); in [9], 1 (1=0-20%). In addition, in the assay with Solanum nigrum (SOLNI), the “percentage damage caused … SOLNI” value is reported as 4 (4=61-80%).
As for `O=C(O)C(F)(F)c1c(Cl)cccc1Cl` [Compound 1.044], the “percentage damage caused … IPOHE” value in [1] is on record as 4 (4=61-80%); in assay [6], 3 (3=41-60%). The “percentage damage caused … AMARE” value in [2] is 3 (3=41-60%); in assay [10], 2 (2=21-40%). Besides, the “percentage damage caused … ECHCG” value in [5] and in assay [9] was 1 (1=0-20%) throughout.
As for `O=C(O)C(F)(F)c1cccc(Cl)c1Br` [Compound 1.050], the “percentage damage caused … IPOHE” value in assay [1] and in assay [6] was 5 (5=81-100%) each time. Also, the “percentage damage caused … AMARE” value in assay [2] and in assay [10] was 5 (5=81-100%) throughout. Besides, the “percentage damage caused … ECHCG” value in assay [5] and in assay [9] was 2 (2=21-40%) throughout.
As for `O=C(O)C(F)(F)c1ccc(F)c(Cl)c1F` [Compound 1.051], the “percentage damage caused … IPOHE” value in assay [1] is 4 (4=61-80%); in [6], 5 (5=81-100%). The entries for the “percentage damage caused … AMARE” value in assay [2] and in [10] were 5 (5=81-100%) and 3 (3=41-60%), respectively. The “percentage damage caused … ECHCG” value in assay [5] and in assay [9] was 1 (1=0-20%) in each case.
Take `Cc1c(Cl)cccc1C(F)(F)C(=O)O` [Compound 1.058]: the “percentage damage caused … IPOHE” value in [1] and in assay [6] was 5 (5=81-100%) in each case. For the same compound, the “percentage damage caused … AMARE” value in assay [2] and in [10] was 5 (5=81-100%) each time. The “percentage damage caused … ECHCG” value in assay [5] and in assay [9] was 3 (3=41-60%) in each case.
Turning to `O=C(O)C(F)(F)c1cccc(C(F)(F)F)c1Cl` [Compound 1.059], the “percentage damage caused … IPOHE” value in assay [1] and in [6] was 5 (5=81-100%) in each case. Further, the “percentage damage caused … AMARE” value is listed as 5 (5=81-100%) in assay [2] and 1 (1=0-20%) in [10]. For the same compound, the “percentage damage caused … ECHCG” value in assay [5] is 3 (3=41-60%); in [9], 1 (1=0-20%).
`O=C(O)C(F)(F)c1cccc(Cl)c1C(F)(F)F` [Compound 1.060]: the “percentage damage caused … IPOHE” value in assay [1] is on record as 5 (5=81-100%); in assay [6], 3 (3=41-60%). Further, the “percentage damage caused … AMARE” value in assay [2] and in [10] was 5 (5=81-100%) each time. For the same compound, the “percentage damage caused … ECHCG” value in assay [5] and in [9] was 1 (1=0-20%) in each case.
`Cc1cccc(C(F)(F)C(=O)O)c1F.N` [Compound 1.061]: the “percentage damage caused … IPOHE” value in assay [1] is recorded as 3 (3=41-60%); in [6], 1 (1=0-20%). Moreover, the “percentage damage caused … AMARE” value is 1 (1=0-20%) in assay [2] and 3 (3=41-60%) in assay [10]. In addition, the “percentage damage caused … ECHCG” value in assay [5] and in assay [9] was 1 (1=0-20%) throughout.
In the case of `Cc1cccc(C(F)(F)C(=O)O)c1C(F)(F)F.N` [Compound 1.062], the “percentage damage caused … IPOHE” value in assay [1] and in assay [6] was 3 (3=41-60%) in each case. Further, the “percentage damage caused … AMARE” value in assay [2] is 4 (4=61-80%); in assay [10], 3 (3=41-60%). The “percentage damage caused … ECHCG” value in [5] and in assay [9] was 1 (1=0-20%) each time.
With `Cc1ccc(Cl)c(Cl)c1C(F)(F)C(=O)O.N` [Compound 1.063], the figures for the “percentage damage caused … IPOHE” value in assay [1] and in assay [6] were 3 (3=41-60%) and 1 (1=0-20%), respectively. Moreover, the “percentage damage caused … AMARE” value in assay [2] is reported as 4 (4=61-80%); in [10] it was 1 (1=0-20%). The “percentage damage caused … ECHCG” value in assay [5] and in assay [9] was 1 (1=0-20%) each time.
Regarding `Cc1c(F)cccc1C(F)(F)C(=O)O` [Compound 1.075], the “percentage damage caused … IPOHE” value is 4 (4=61-80%) in assay [1] and 3 (3=41-60%) in assay [6]. In addition, the results for the “percentage damage caused … AMARE” value in assay [2] and in assay [10] were 5 (5=81-100%) and 3 (3=41-60%), respectively. The “percentage damage caused … ECHCG” value in [5] and in [9] was 1 (1=0-20%) each time.
On to `Cc1c(Cl)ccc(Cl)c1C(F)(F)C(=O)O.N` [Compound 1.084], for which the entries for the “percentage damage caused … IPOHE” value in [1] and in assay [6] were 4 (4=61-80%) and 1 (1=0-20%), respectively. Also, the “percentage damage caused … AMARE” value in [2] and in assay [10] was 2 (2=21-40%) throughout. Besides, the “percentage damage caused … ECHCG” value in assay [5] and in assay [9] was 1 (1=0-20%) each time.
